The record followed here is patent US20240342292A1, “Compounds for the Degradation of EGFR Kinase” (BeiGene Switzerland GmbH, priority 2021, published 2024).

As usually defined, the DC50 is the concentration giving 50% degradation. One may read the Dmax as the largest share of the target that was removed. High values mean deep degradation, low ones shallow degradation.

SMILES strings stand for the structures.

The target of one assay is T1, L858R/T790M/C797S EGFR (Homo sapiens, UniProt P00533, C797S/L858R/T790M).
T1 construct: expressed in transfected cells; host or cells: H1975 clone #25 (lentiviral over-expression, endogenous EGFR knocked out by sgRNA)
The assay can be described thus: EGFR degradation HTRF assay in H1975-clone #25 (LTC) cells. Type of assay: cell-based. The following applies: 16h treatment; for DC50: H1975 # 25-LTC (L858R/T790M/C797S), HTRF; for Dmax: NCI-H1975, H1975 # 25-LTC (L858R/T790M/C797S), maximum percentage of degradation. The essentials: (§1)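 H1975 clones stably overexpressing mutant EGFR by lentivirus, with endogenous EGFR knocked out by sgRNA and homozygosity confirmed by sequencing, were treated 16 h at 37 °C with compounds in 0.2% DMSO medium, 8 doses from 10 uM in 5-fold dilution. Lysates were read by HTRF (665/620 nm); DC50 came from a four-parameter fit.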
(TR-FRET usually uses a lanthanide donor and a delayed reading to cut background.)

In another assay the test system is Del19/T790M/C797S EGFR. The assay can be described thus: EGFR degradation HTRF assay in H1975-clone #28 (DTC) cells. Type of assay: cell-based. The following applies: H1975 # 28 DTC (Del19/T790M/C797S), 16h treatment; for DC50: HTRF; for Dmax (%): maximum percentage of degradation. The essentials: as §1

T1 sequence (P00533 25-1210 T790M/C797S/L858R): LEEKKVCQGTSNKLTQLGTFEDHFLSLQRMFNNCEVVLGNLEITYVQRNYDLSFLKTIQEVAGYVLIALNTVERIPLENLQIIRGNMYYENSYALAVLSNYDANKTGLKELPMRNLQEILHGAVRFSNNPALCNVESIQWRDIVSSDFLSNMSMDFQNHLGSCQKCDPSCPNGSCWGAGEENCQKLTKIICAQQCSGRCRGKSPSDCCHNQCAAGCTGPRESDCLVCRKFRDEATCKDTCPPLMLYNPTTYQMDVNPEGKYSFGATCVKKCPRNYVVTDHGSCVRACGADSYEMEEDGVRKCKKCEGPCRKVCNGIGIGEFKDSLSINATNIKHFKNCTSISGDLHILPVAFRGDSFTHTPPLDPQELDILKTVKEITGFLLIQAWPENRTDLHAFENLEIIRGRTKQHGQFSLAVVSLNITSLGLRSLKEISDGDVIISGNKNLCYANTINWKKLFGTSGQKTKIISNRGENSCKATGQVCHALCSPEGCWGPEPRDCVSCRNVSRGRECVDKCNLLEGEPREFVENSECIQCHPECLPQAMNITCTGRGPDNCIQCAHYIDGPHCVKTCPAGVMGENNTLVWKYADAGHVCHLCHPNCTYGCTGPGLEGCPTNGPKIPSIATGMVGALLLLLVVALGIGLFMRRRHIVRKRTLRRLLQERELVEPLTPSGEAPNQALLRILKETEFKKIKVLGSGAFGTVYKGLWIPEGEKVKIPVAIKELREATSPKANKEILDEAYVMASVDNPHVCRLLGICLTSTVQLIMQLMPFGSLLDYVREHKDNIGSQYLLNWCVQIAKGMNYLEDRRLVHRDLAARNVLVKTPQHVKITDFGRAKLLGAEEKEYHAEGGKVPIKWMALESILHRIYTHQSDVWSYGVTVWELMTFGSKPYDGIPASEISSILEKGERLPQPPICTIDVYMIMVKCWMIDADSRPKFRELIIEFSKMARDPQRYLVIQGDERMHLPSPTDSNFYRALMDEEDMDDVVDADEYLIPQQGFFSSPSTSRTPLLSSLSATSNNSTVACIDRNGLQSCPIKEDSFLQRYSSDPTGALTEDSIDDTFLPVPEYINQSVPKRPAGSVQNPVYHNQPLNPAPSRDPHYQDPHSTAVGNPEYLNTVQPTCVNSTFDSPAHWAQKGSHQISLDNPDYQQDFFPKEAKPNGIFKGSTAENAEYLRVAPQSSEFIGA

At L858R/T790M/C797S EGFR, `CO[C@@H]1CN(CCc2cc(F)c([C@H]3CCC(=O)NC3=O)c(F)c2)CC[C@@H]1NC(=O)c1ccc2c(c1)N1C[C@H](C)CCCOc3c(cnn3C)-c3cc(cc(C)n3)C(=O)/N=C/1N2` [Example 245, (R,E)-N-((3R,4S)-1-(4-((R)-2,6-dioxopiperidin-3-yl)-3,5-difluorophenethyl)-3-methoxypiperidin-4-yl)-1^1,2^5,7-trimethyl-3-oxo-5^2,5^3-dihydro-1^1H,5^1H-11-oxa-4-aza-5(2,1)-benzo[d]imidazola-2(2,4)-pyridina-1(4,5)-pyrazolacycloundecaphane-5^6-carboxamide] had a DC50 of 0.487 nM and a Dmax of 94%. In the assay with Del19/T790M/C797S EGFR, the DC50 is 0.534 nM and the “Dmax (%)” value was 81.9%.

On L858R/T790M/C797S EGFR, `Cc1cc2cc(n1)-c1cnn(C)c1OCCC[C@@H](C)CN1/C(=N/C2=O)Nc2ccc(N3CCC(N4CCC(Oc5cc(F)c([C@H]6CCC(=O)NC6=O)c(F)c5)CC4)CC3)cc21` [Example 381, (R)-3-(2,6-difluoro-4-((1′-((R,E)-1^1,2^6,7-trimethyl-3-oxo-5^2,5^3-dihydro-1^1H,5^1H-11-oxa-4-aza-5(2,1)-benzo[d]imidazola-2(2,4)-pyridina-1(4,5)-pyrazolacycloundecaphane-5^6-yl)-[1,4′-bipiperidin]-4-yl)oxy)phenyl)piperidine-2,6-dione] came in with a DC50 of 0.9 nM and a Dmax of 83.6%. Moreover, in the assay with Del19/T790M/C797S EGFR, the DC50 came to 1.06 nM and the “Dmax (%)” value was 60.14%.

Take `Cc1cc2cc(n1)-c1cnn(C)c1OCCC[C@@H](C)CN1/C(=N/C2=O)Nc2ccc(N3CCN([C@H]4C[C@@H](Nc5cc(F)c([C@H]6CCC(=O)NC6=O)c(F)c5)C4)CC3)cc21` [Example 445, (R)-3-(2,6-difluoro-4-(((1 S,3S)-3-(4-((R,E)-1^1,2^6,7-trimethyl-3-oxo-5^2,5^3-dihydro-1^1H,5^1H-11-oxa-4-aza-5(2,1)-benzo[d]imidazola-2(2,4)-pyridina-1(4,5)-pyrazolacycloundecaphane-5^6-yl)piperazin-1-yl)cyclobutyl)amino)phenyl)piperidine-2,6-dione]: on L858R/T790M/C797S EGFR, half-maximal degradation (DC50) was put at 0.559 nM and the Dmax stood at 84.5%. Besides, in the assay on Del19/T790M/C797S EGFR, the DC50 was found to be 2.14 nM and the “Dmax (%)” value was found to be 74.88%.

On L858R/T790M/C797S EGFR, `Cc1cc2cc(n1)-c1cnn(C)c1OCCC[C@@H](C)CN1/C(=N/C2=O)Nc2ccc(C(=O)N(C)[C@@H]3CCN(CCc4cc(F)c([C@H]5CCC(=O)NC5=O)c(F)c4)CC3(F)F)cc21` [Example 250, (R,E)-N—((R)-1-(4-((R)-2,6-dioxopiperidin-3-yl)-3,5-difluorophenethyl)-3,3-difluoropiperidin-4-yl)-N,1^1,2^6,7-tetramethyl-3-oxo-5^2,5^3-dihydro-1^1H,5^1H-11-oxa-4-aza-5(2,1)-benzo[d]imidazola-2(2,4)-pyridina-1(4,5)-pyrazolacycloundecaphane-5^6-carboxamide] returned a DC50 of 1.06 nM and a Dmax of 88.9%. Further, in the assay on Del19/T790M/C797S EGFR, the DC50 was found to be 0.59 nM and the “Dmax (%)” value is 82.13%.

On L858R/T790M/C797S EGFR, `Cc1cc2cc(n1)-c1cnn(C)c1OCCC[C@@H](C)CN1/C(=N/C2=O)Nc2ccc(N3CC[C@@H](N4CCN(c5cc(F)c([C@H]6CCC(=O)NC6=O)c(F)c5)CC4)CC3=O)cc21` [Example 448, (R)-3-(2,6-difluoro-4-(4-((R)-2-oxo-1-((R,E)-1^1,2^6,7-trimethyl-3-oxo-5^2,5^3-dihydro-1^1H,5^1H-11-oxa-4-aza-5(2,1)-benzo[d]imidazola-2(2,4)-pyridina-1(4,5)-pyrazolacycloundecaphane-5^6-yl)piperidin-4-yl)piperazin-1-yl)phenyl)piperidine-2,6-dione] came in with a DC50 of 0.237 nM and a maximal degradation (Dmax) of 92.3%. Also, in the assay with Del19/T790M/C797S EGFR, the DC50 was found to be 0.584 nM and the “Dmax (%)” value came out at 88.36%.

On L858R/T790M/C797S EGFR, `Cc1cc2cc(n1)-c1cnn(C)c1OCCC[C@@H](C)CN1/C(=N/C2=O)Nc2ccc(N3CCN(CC4CN(c5cc(F)c([C@H]6CCC(=O)NC6=O)c(F)c5)C4)[C@H](CO)C3)cc21` [Example 451, (R)-3-(2,6-difluoro-4-(3-(((S)-2-(hydroxymethyl)-4-((R,E)-1^1,2^6,7-trimethyl-3-oxo-5^2,5^3-dihydro-1^1H,5^1H-11-oxa-4-aza-5(2,1)-benzo[d]imidazola-2(2,4)-pyridina-1(4,5)-pyrazolacycloundecaphane-5^6-yl)piperazin-1-yl)methyl)azetidin-1-yl)phenyl)piperidine-2,6-dione] registered a DC50 of 0.881 nM and a Dmax of 90.9%. In the assay with Del19/T790M/C797S EGFR, half-maximal degradation (DC50) was put at 0.606 nM and the “Dmax (%)” value was 81.53%.

At L858R/T790M/C797S EGFR, `Cc1cc2cc(n1)-c1cnn(C)c1OCCC[C@@H](C)CN1/C(=N/C2=O)Nc2ccc(N3CCN(C4CCN(c5cc(F)c([C@H]6CCC(=O)NC6=O)c(F)c5)CC4)C(=O)C3)cc21` [Example 425, (R)-3-(2,6-difluoro-4-(4-(2-oxo-4-((R,E)-1^1,2^6,7-trimethyl-3-oxo-5^2,5^3-dihydro-1^1H,5^1H-11-oxa-4-aza-5(2,1)-benzo[d]imidazola-2(2,4)-pyridina-1(4,5)-pyrazolacycloundecaphane-5^6-yl)piperazin-1-yl)piperidin-1-yl)phenyl)piperidine-2,6-dione] registered a half-maximal degradation concentration (DC50) of 0.73 nM and a Dmax of 92.7%. In the assay on Del19/T790M/C797S EGFR, the DC50 is 0.957 nM and the “Dmax (%)” value turned out to be 83.85%.

At L858R/T790M/C797S EGFR, `Cc1cc2cc(n1)-c1cnn(C)c1OCC[C@H]1C[C@@H]1CN1/C(=N/C2=O)Nc2ccc(N3CCN(C[C@H]4C[C@H](Nc5cc(F)c([C@H]6CCC(=O)NC6=O)c(F)c5)C4)CC3)cc21` [Example 457, (R)-3-(4-(((1S,3R)-3-((4-((7^1S,7^2R,E)-1^1,2^6-dimethyl-3-oxo-5^2,5^3-dihydro-1^1H,5^1H-10-oxa-4-aza-5(2,1)-benzo[d]imidazola-2(2,4)-pyridina-1(4,5)-pyrazola-7(1,2)-cyclopropanacyclodecaphane-5^6-yl)piperazin-1-yl)methyl)cyclobutyl)amino)-2,6-difluorophenyl)piperidine-2,6-dione] gave a DC50 of 0.632 nM and a Dmax of 92.8%. Further, in the assay on Del19/T790M/C797S EGFR, the DC50 worked out at 0.709 nM and the “Dmax (%)” value is on record as 91.81%.

As to `Cc1cc2cc(n1)-c1cnn(C)c1OCCC[C@@H](C)CN1/C(=N/C2=O)Nc2ccc(CN3CC4CC(C3)N4C(=O)[C@@H]3CCN(c4cc(F)c([C@H]5CCC(=O)NC5=O)c(F)c4)C3)cc21` [Example 163, (3R)-3-(2,6-difluoro-4-((3R)-3-(3-(((R,E)-1^1,2^6,7-trimethyl-3-oxo-5^2,5^3-dihydro-1^1H,5^1H-11-oxa-4-aza-5(2,1)-benzo[d]imidazola-2(2,4)-pyridina-1(4,5)-pyrazolacycloundecaphane-5^6-yl)methyl)-3,6-diazabicyclo[3.1.1]heptane-6-carbonyl)pyrrolidin-1-yl)phenyl)piperidine-2,6-dione], at L858R/T790M/C797S EGFR, the DC50 stood at 1.14 nM and the Dmax amounted to 83.1%. Further, in the assay on Del19/T790M/C797S EGFR, the DC50 came out at 1.76 nM and the “Dmax (%)” value was 66.41%.

On L858R/T790M/C797S EGFR, `CO[C@H]1CN(CCc2cc(F)c([C@H]3CCC(=O)NC3=O)c(F)c2)CC[C@H]1N(C)C(=O)c1ccc2c(c1)N1C[C@H](C)CCCOc3c(cnn3C)-c3cc(cc(C)n3)C(=O)/N=C/1N2` [Example 255, (R,E)-N—((3S,4R)-1-(4-((R)-2,6-dioxopiperidin-3-yl)-3,5-difluorophenethyl)-3-methoxypiperidin-4-yl)-N,1^1,2^6,7-tetramethyl-3-oxo-5^2,5^3-dihydro-1^1H,5^1H-11-oxa-4-aza-5(2,1)-benzo[d]imidazola-2(2,4) -pyridina-1(4,5)-pyrazolacycloundecaphane-5^6-carboxamide] yielded a DC50 of 0.599 nM and a Dmax of 91.1%. Further, in the assay on Del19/T790M/C797S EGFR, the DC50 turned out to be 0.566 nM and the “Dmax (%)” value came to 81.82%.

On to `CO[C@@H]1CN(CCc2cc(F)c([C@H]3CCC(=O)NC3=O)c(F)c2)CC[C@H]1NC(=O)c1ccc2c(c1)N1C[C@H](C)CCCOc3c(cnn3C)-c3cc(cc(C)n3)C(=O)/N=C/1N2` [Example 253, (R,E)-N—((3R,4R)-1-(4-((R)-2,6-dioxopiperidin-3-yl)-3,5-difluorophenethyl)-3-methoxypiperidin-4-yl)-1^1,2^6,7-trimethyl-3-oxo-5^2,5^3-dihydro-1^1H,5^1H-11-oxa-4-aza-5(2,1)-benzo[d]imidazola-2(2,4)-pyridina-1(4,5)-pyrazolacycloundecaphane-5^6-carboxamide], for which, at L858R/T790M/C797S EGFR, the DC50 came to 0.289 nM and the Dmax is 93.8%. In the assay with Del19/T790M/C797S EGFR, the DC50 amounted to 0.59 nM and the “Dmax (%)” value worked out at 82.5%.

At L858R/T790M/C797S EGFR, `Cc1cc2cc(n1)-c1cnn(C)c1OCCC[C@@H](C)CN1/C(=N/C2=O)Nc2ccc(N3CCN(CC4CCN(c5cc(F)c([C@H]6CCC(=O)NC6=O)c(F)c5)CC4)CC3)cc21` [Example 322, (R)-3-(2,6-difluoro-4-(4-((4-((R,E)-1^1,2^6,7-trimethyl-3-oxo-5^2,5^3-dihydro-1^1H,5^1H-11-oxa-4-aza-5(2, 1)-benzo[d]imidazola-2(2,4)-pyridina-1(4,5)-pyrazolacycloundecaphane-5^6-yl)piperazin-1-yl)methyl)piperidin-1-yl)phenyl)piperidine-2,6-dione] returned a DC50 of 1.21 nM and a Dmax of 86.8%. Besides, in the assay on Del19/T790M/C797S EGFR, the DC50 amounted to 0.934 nM and the “Dmax (%)” value amounted to 74.99%.
